Measurements from the supplement of paper PMC11061612.

Legend:
[1] = test system: OVTOKO (Ovarian Carcinoma); assay: combination Emax (second highest fraction inhibited in the dose matrix, 72 h); higher = more inhibition; extreme values may be limits of the assay
How it was run: (§1)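 Bliss excess equals the observed combination effect minus the expected value EA + EB − EA·EB, where EA and EB are the effects of each agent alone. Combination Emax is the second-highest inhibition within the matrix. Inhibition was scaled from CellTiter-Glo 2.0 luminescence, with 0 set by vehicle wells and 1 by blank wells, after 72 hours of two-drug dosing of cells plated in 1536-well plates.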

[2] = test system: NCI-H1155 (Non-Small Cell Lung Carcinoma); assay: as above
How it was run: as §1

[3] = test system: SK-MM-2 (Plasma Cell Myeloma); assay: Bliss excess, mean over the matrix (fraction); higher = more synergy
How it was run: as §1

[4] = test system: LOUCY (T-Lymphoblastic Leukemia); assay: as above
How it was run: as §1

[5] = test system: RL95-2 (Endometrial Carcinoma); assay: as above
How it was run: as §1

[6] = test system: Becker (Low Grade Glioma); assay: as above
How it was run: as §1

[7] = test system: NCI-H810 (Non-Small Cell Lung Carcinoma); assay: as above
How it was run: as §1

KYM-1 (Rhabdomyosarcoma) = assay: as above
How it was run: as §1

[8] = test system: HTC-C3 (Thyroid Gland Carcinoma); assay: as above
How it was run: as §1

[9] = test system: NCI-H196 (Small Cell Lung Carcinoma); assay: as above
How it was run: as §1

[10] = test system: AN3-CA (Endometrial Carcinoma); assay: as above
How it was run: as §1

[11] = test system: PC-14 (Lung Adenocarcinoma); assay: as above
How it was run: as §1

[12] = test system: NCI-H1563 (Lung Adenocarcinoma); assay: as above
How it was run: as §1

[13] = test system: SJRH30 (Rhabdomyosarcoma); assay: as above
How it was run: as §1

RT4 (Bladder Carcinoma) = assay: as above
How it was run: as §1

[14] = test system: OVTOKO (Ovarian Carcinoma); assay: as above
How it was run: as §1

[15] = test system: COLO-684 (Endometrial Carcinoma); assay: as above
How it was run: as §1

[16] = test system: BALL-1 (B-Lymphoblastic Leukemia); assay: as above
How it was run: as §1

[17] = test system: RMG-I (Ovarian Carcinoma); assay: as above
How it was run: as §1

[18] = test system: Caov-3 (Ovarian Carcinoma); assay: as above
How it was run: as §1

| SMILES | combination Emax [1] | combination Emax [2] | Bliss excess [3] | Bliss excess [4] | Bliss excess [5] | Bliss excess [6] | Bliss excess [7] | Bliss excess (KYM-1 (Rhabdomyosarcoma)) | Bliss excess [8] | Bliss excess [9] | Bliss excess [10] | Bliss excess [11] | Bliss excess [12] | Bliss excess [13] | Bliss excess (RT4 (Bladder Carcinoma)) | Bliss excess [14] | Bliss excess [15] | Bliss excess [16] | Bliss excess [17] | Bliss excess [18] |
| --- | --- | --- | --- | --- | --- | --- | --- | --- | --- | --- | --- | --- | --- | --- | --- | --- | --- | --- | --- | --- |
| NC1(C(=O)N[C@@H](CCO)c2ccc(Cl)cc2)CCN(c2ncnc3[nH]ccc23)CC1 [Capivasertib] + CCN(CCO)CCCOc1ccc2c(Nc3cc(CC(=O)Nc4cccc(F)c4)[nH]n3)ncnc2c1 [AZD2811] (first compound max 10 µM, 7x7, partner max 1 µM) | 0.568 | 0.864 | -0.0412 | -0.104 | -0.0051 | -0.0136 | -0.0195 | -0.0457 | -0.015 | -0.0276 | 0.0151 | 0.028 | 0.0242 | 0.0224 | -0.0039 | -0.0109 | 0.0272 | 0.0356 | -0.0214 |  |
| CCc1c2c(nc3ccc(O)cc13)-c1cc3c(c(=O)n1C2)COC(=O)[C@]3(O)CC [SN-38] + O=C(c1cc(Cc2n[nH]c(=O)c3ccccc23)ccc1F)N1CCN(C(=O)C2CC2)CC1 [Olaparib] (first compound max 0.3 µM, 7x7, partner max 10 µM) |  | 0.968 | -0.0056 | 0.0204 |  | 0.083 | 0.107 | 0.0383 | 0.0591 |  |  | 0.0707 |  | 0.0591 | 0.0702 |  | -0.0188 | 0.0629 | 0.0057 | 0.0886 |
| COc1cc2ncnc(Nc3ccc(F)c(Cl)c3)c2cc1OCCCN1CCOCC1 [Gefitinib] + CC(C)n1c(=O)n(C)c2cnc3cc(F)c(-c4ccc(OCCCN5CCCCC5)nc4)cc3c21 [AZD1390] (first compound max 10 µM, 7x7, partner max 0.3 µM) | 0.428 | 0.0815 | -0.0267 | 0.0024 | -0.0454 | -0.0247 | -0.0863 | -0.0515 | -0.0976 | -0.0685 | -0.0592 | -0.0565 | -0.0757 | -0.0407 | -0.176 | -0.0672 | -0.0395 | -0.07 | -0.0346 |  |
| NC1(C(=O)N[C@@H](CCO)c2ccc(Cl)cc2)CCN(c2ncnc3[nH]ccc23)CC1 [Capivasertib] + CC(C)n1c(=O)n(C)c2cnc3cc(F)c(-c4ccc(OCCCN5CCCCC5)nc4)cc3c21 [AZD1390] (first compound max 10 µM, 7x7, partner max 0.3 µM) | 0.516 | 0.357 | -0.115 | -0.0101 | -0.0709 | -0.0136 | -0.0543 | -0.0278 | -0.0216 | -0.0439 | -0.0057 | -0.0168 | 0.0016 | -0.0373 | -0.0651 | -0.0752 | -0.0909 | -0.0292 | -0.062 |  |
| COc1nnc2ccc(N3CCC(c4ccc(OCCN5CCN(C)C(=O)[C@H]5C)cc4)CC3)nn12 [AZD5153] + Cn1cnc2c(F)c(Nc3ccc(Br)cc3Cl)c(C(=O)NOCCO)cc21 [Selumetinib] (first compound max 1 µM, 7x7, partner max 10 µM) | 0.471 | 0.686 | -0.004 | 0.0484 | -0.0221 | 0.0472 | -0.0224 | 0.0086 | -0.0464 | -0.0296 | -0.0484 | 0.007 | -0.085 | 0.0152 | 0.0073 | -0.0591 | -0.0134 | -0.0274 | -0.0486 |  |
| Cn1cnc2c(F)c(Nc3ccc(Br)cc3Cl)c(C(=O)NOCCO)cc21 [Selumetinib] + C=CCn1c(=O)c2cnc(Nc3ccc(N4CCN(C)CC4)cc3)nc2n1-c1cccc(C(C)(C)O)n1 [AZD1775] (first compound max 10 µM, partner max 1 µM) | 0.452 | 0.342 | -0.0198 | -0.196 | 0.0148 | 0.0145 | -0.0632 | -0.0696 | 0.0338 | -0.0704 | -0.0495 | -0.0475 | -0.0393 | -0.0372 | -0.0127 | -0.114 | -0.0323 | 0.0018 | -0.0005 |  |
| Cn1cnc2c(F)c(Nc3ccc(Br)cc3Cl)c(C(=O)NOCCO)cc21 [Selumetinib] + CCN(CCO)CCCOc1ccc2c(Nc3cc(CC(=O)Nc4cccc(F)c4)[nH]n3)ncnc2c1 [AZD2811] (first compound max 10 µM, 7x7, partner max 1 µM) | 0.227 | 0.674 | -0.0037 | -0.0979 | 0.045 | -0.0119 | -0.037 | -0.0102 | -0.0228 | -0.057 | 0.0242 | 0.0372 | 0.0102 | -0.0008 | -0.0816 | -0.0303 | -0.0211 | 0.0638 | -0.0385 |  |
| NC1(C(=O)N[C@@H](CCO)c2ccc(Cl)cc2)CCN(c2ncnc3[nH]ccc23)CC1 [Capivasertib] + C[C@@H]1COCCN1C2=NC(=NC(=C2)C3(CC3)[S@](=N)(=O)C)C4=C5C=CNC5=NC=C4 [AZD6738] (first compound max 10 µM, 7x7, partner max 10 µM) | 0.628 | 0.816 | -0.0164 | -0.0482 | -0.0803 | -0.0135 | -0.0575 | -0.0693 | -0.0323 | -0.0265 | -0.0526 | -0.0355 | -0.0357 | -0.0324 | -0.022 | -0.0084 | -0.0262 | -0.0066 | -0.0371 |  |
| Cc1nc(Nc2ncc(C(=O)Nc3c(C)cccc3Cl)s2)cc(N2CCN(CCO)CC2)n1 [Dasatinib] + CC(=O)Nc1cccc(-n2c(=O)n(C3CC3)c(=O)c3c(Nc4ccc(I)cc4F)n(C)c(=O)c(C)c32)c1 [Trametinib] (first compound max 2 µM, 7x7, partner max 1 µM) | 0.748 | 0.237 | -0.0157 | 0.0286 | -0.186 | 0.0234 | -0.0565 | -0.0178 | -0.0093 | -0.0634 | -0.168 | 0.0079 | -0.111 | -0.0973 | -0.0057 | -0.139 | -0.0482 | -0.0108 | -0.0276 |  |
| COc1nnc2ccc(N3CCC(c4ccc(OCCN5CCN(C)C(=O)[C@H]5C)cc4)CC3)nn12 [AZD5153] + C=CCn1c(=O)c2cnc(Nc3ccc(N4CCN(C)CC4)cc3)nc2n1-c1cccc(C(C)(C)O)n1 [AZD1775] (first compound max 1 µM, partner max 1 µM) | 0.622 | 0.814 | -0.0484 | -0.0527 | 0.0344 | -0.0421 | -0.0578 | -0.0249 | -0.033 | -0.0574 | -0.0624 | -0.0488 | 0.0474 | -0.019 | -0.0064 | 0.0095 | -0.0852 | -0.0234 | -0.0187 |  |
| CS(=O)(=O)CCNCc1ccc(-c2ccc3ncnc(Nc4ccc(OCc5cccc(F)c5)c(Cl)c4)c3c2)o1 [Lapatinib] + C[C@@H](Oc1cc(-c2cnn(C3CCNCC3)c2)cnc1N)c1c(Cl)ccc(F)c1Cl [Crizotinib] (first compound max 10 µM, 7x7, partner max 10 µM) | 0.902 | 0.61 | -0.0207 | -0.102 | -0.0535 | -0.0387 | -0.0386 | -0.0515 | 0.0215 | -0.0564 | -0.0223 | -0.028 | 0.0087 | -0.0323 | -0.0511 | -0.0437 | -0.0364 | 0.0146 | -0.0367 |  |
| COc1nnc2ccc(N3CCC(c4ccc(OCCN5CCN(C)C(=O)[C@H]5C)cc4)CC3)nn12 [AZD5153] + CCN(CCO)CCCOc1ccc2c(Nc3cc(CC(=O)Nc4cccc(F)c4)[nH]n3)ncnc2c1 [AZD2811] (first compound max 1 µM, 7x7, partner max 1 µM) | 0.539 | 0.726 | -0.0366 | 0.0305 | -0.154 | 0.0134 | -0.0068 | -0.0682 | -0.05 | -0.0285 | -0.0375 | -0.0017 | -0.0508 | 0.109 | -0.0391 | -0.0423 | 0.0152 | 0.0056 | -0.0479 |  |
| Cn1cnc2c(F)c(Nc3ccc(Br)cc3Cl)c(C(=O)NOCCO)cc21 [Selumetinib] + C[C@@H]1COCCN1C2=NC(=NC(=C2)C3(CC3)[S@](=N)(=O)C)C4=C5C=CNC5=NC=C4 [AZD6738] (first compound max 10 µM, 7x7, partner max 10 µM) | 0.404 | 0.758 | -0.0604 | -0.0446 | 0.0152 | 0.0016 | -0.0707 | -0.033 | -0.0072 | -0.0607 | 0.0359 | -0.0022 | -0.0297 | -0.0293 | -0.0036 | -0.0278 | -0.0474 | -0.0066 | 0.0106 |  |
| C=CCn1c(=O)c2cnc(Nc3ccc(N4CCN(C)CC4)cc3)nc2n1-c1cccc(C(C)(C)O)n1 [AZD1775] + C1CN(CCC1(C(=O)N[C@@H](CCO)C2=CC=C(C=C2)Cl)N)C3=NC=NC4=C3C=CN4 [Capivasertib] (first compound max 3 µM, partner max 3 µM) | 0.594 | 0.831 | -0.0629 | 0.0157 | 0.0093 | -0.0716 | -0.0404 | -0.0084 | -0.0653 | -0.118 | 0.0797 | -0.018 | -0.0318 | -0.0065 | -0.0355 | -0.0135 | -0.0937 | 0.0591 | -0.0349 |  |
| C[C@@H](c1ccc2nccn2c1)n1nnc2ncc(-c3cnn(C)c3)nc21 [Savolitinib] + CC1(C)CCC(CN2CCN(c3ccc(C(=O)NS(=O)(=O)c4ccc(NCC5CCOCC5)c([N+](=O)[O-])c4)c(Oc4cnc5[nH]ccc5c4)c3)CC2)=C(c2ccc(Cl)cc2)C1 [Venetoclax] (first compound max 1 µM, 7x7, partner max 1 µM) | 0.199 | 0.149 | -0.019 | -0.0803 | -0.0481 | -0.0182 | -0.0517 | -0.0133 | -0.053 | -0.067 | -0.0499 | -0.0276 | -0.0691 | -0.0577 | -0.055 | -0.0675 | -0.0458 | -0.0306 | -0.0756 |  |
